The values that follow come from patent US9486449B2, “Cancer therapy” (priority 2007, dated 2016).

The structures appear in SMILES notation. Where “and” joins values, the source holds several entries; their conditions need not be identical. Identical values can stand only once. Counter-ions that a name gives are not always drawn.

For data set [1], the system named is CAPANI cells (which are deficient in brca2). The following applies: cited from earlier work.
In data set [2] the target is T1, binding of γ-tubulin to kinesin-14/HSET (Homo sapiens, UniProt Q9BW19).
T1 sequence (Q9BW19 1-673): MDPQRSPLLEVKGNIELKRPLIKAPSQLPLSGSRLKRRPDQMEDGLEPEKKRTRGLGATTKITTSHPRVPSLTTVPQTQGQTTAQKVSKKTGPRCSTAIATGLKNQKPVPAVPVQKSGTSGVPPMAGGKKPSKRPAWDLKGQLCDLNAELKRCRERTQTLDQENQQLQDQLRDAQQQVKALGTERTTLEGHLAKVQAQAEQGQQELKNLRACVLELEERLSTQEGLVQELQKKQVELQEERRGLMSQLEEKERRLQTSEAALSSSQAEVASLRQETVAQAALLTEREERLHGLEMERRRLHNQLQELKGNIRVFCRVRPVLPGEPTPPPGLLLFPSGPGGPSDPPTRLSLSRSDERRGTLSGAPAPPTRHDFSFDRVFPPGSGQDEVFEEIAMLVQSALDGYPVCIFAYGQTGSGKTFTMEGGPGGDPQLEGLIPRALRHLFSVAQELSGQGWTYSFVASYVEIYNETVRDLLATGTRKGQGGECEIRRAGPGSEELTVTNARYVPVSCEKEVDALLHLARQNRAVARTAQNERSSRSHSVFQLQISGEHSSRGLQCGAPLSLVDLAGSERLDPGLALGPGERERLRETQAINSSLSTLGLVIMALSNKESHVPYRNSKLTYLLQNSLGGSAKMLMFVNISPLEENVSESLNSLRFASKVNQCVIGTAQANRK
The data set is described as follows: Co-IP of kinesin-14/HSET with γ-tubulin in MDA-MB-231 cells. Format: cell-based. The following applies: 48 hours, PJ-34 20 μM, Tiq-A 100 μM, Phen(6) 50 μM. The text has this:
Thus, PJ-34, Tiq-A and Phen interfered with the co-immunoprecipitation of HSET with γ-tubulin.

Another data set relates to α-tubulin with γ-tubulin. The data set is described as follows: Co-immunoprecipitation of α-tubulin with γ-tubulin in cancer cells. It is filed as cell-based.
The test system of data set [3] is MCF-7 breast cancer cells. Briefly: Survival of MCF-7 cells after single application (cell count, microscopy). Particulars: for MCF-7 survival: 48 to 72 hours, 10 μM PJ-34, Tiq-A 100 μM, Phen 50 μM; for killing of MCF-7 cells: Example 7, single application 24 h after seeding, Tiq-A 50/100 μM 72 h, Phen 25 μM 48 h / 50 μM 72 h. It is filed as cell-based, human. The procedure: Cells were cultured in 6-wells multi-dish plates (Nunc Denmark). MCF-7 and MDA231 cells were cultured in 6-wells multi-dish plates (Nunc Denmark). MCF-7 and MDA231 cells were maintained in a medium containing DMEM (cat #01055-1A), 10% Horse serum (cat #04-124-1A), 1% L-Glutamine (cat #03-020-1B), and 1% Pen-Strep Ampho (cat #03-033-1B) (Gibco, Invitrogene, purchased from Rhenium, Jerusalem 91035 Israel.
MCF-7 cells were seeded (about 50,000/well) in 6-well plates. […]. […] […].
The effect of PARP inhibitors on MCF-7 and MDA-MB-231 human breast cancer cells was examined (cells were seeded in about 500,000 cells/[…] well in six-well plates). […]. The damage was irreversible. […]. […] […].

Data set [4] deals with MDA-MB-231 xenotransplants. The data set is described as follows: MDA-MB-231 xenotransplants in nude mice, PJ-34 by subcutaneous osmotic pump. Format: in vivo, mouse. The following applies: PJ-34 treated, tumor-free mice. The procedure:
Xenotransplants were developed in female CD-1 nu/nu 5 to 6 weeks old. MCF-7 and MDA 231 cells were injected subcutaneously, about 10^7 MCF-7 or MDA231 cells in 150 μl of PBS and 150 μl of Martigel Basement Membrane Matrix Becton Dickinson, Bedford, Mass., USA; In Israel Bactolab Diagnostics). In mice treated with PJ-34, injection was adjacent to subcutaneous osmotic pumps dripping PJ-34 by a slow release. The mice were maintained under specific pathogen-free conditions with access to mouse chow and water ad libitum. […]. Subcutaneous implantation of these pumps was performed before injection by a veterinarian (Dr. Kastel David). All the experiments with nude mice conform to the Guide for the Care and Use of Laboratory Animals published by the NIH (publication No. 85-23, revised 1996). Approval was granted by the Israeli Ministry of Health ethics review board in the Tel-AvivUniversity (M08033).
In vivo experiments were carried out in nude female mice (nu/nu) injected subcutaneously with MCF-7 or MDA-MB-231 cells (FIG. 15). […]. In the control nude mice, pumps contained only PBS, or pumps were not implanted. Each mouse was injected subcutaneously with approximately 10^7 MCF-7 or MDA-MB-231 cells dispersed in Matrigel. Tumors developed within 6 to 7 weeks in the control mice injected with MCF-7 cells and within 10 days in the control mice injected with MDA231 cells. […]

Data set [5] can be described thus: Tolerability of slow-release PJ-34 in nude mice. Format: in vivo. The procedure: . In vivo experiments were carried out in nude female mice (nu/nu) injected subcutaneously with MCF-7 or MDA-MB-231 cells (FIG. 15). […]. In the control nude mice, pumps contained only PBS, or pumps were not implanted. Each mouse was injected subcutaneously with approximately 10^7 MCF-7 or MDA-MB-231 cells dispersed in Matrigel. Tumors developed within 6 to 7 weeks in the control mice injected with MCF-7 cells and within 10 days in the control mice injected with MDA231 cells. One mouse died 3 weeks after being injected with MDA-MB-231 cells. […]

Data set [6] relates to extra-centrosomes de-clustering in human cancer cells. The data set is described as follows: Extra-centrosomes de-clustering. Format: cell-based.
The next data set concerns U-87 Glioblastoma cells. Briefly: Viability of U-87 glioblastoma cells (FACS). Format: cell-based, human. The following applies: 0.5-30 μM, single application; 72 and 96 h (PJ-34), 96 h (Phen, Tiq-A). The procedure: The malignant U-87 Glioblastoma cells were incubated with these molecules applied once 24 hours after seeding. Cell viability was measured by FACS. The results of 3 different experiments carried in duplicates are presented.

Data set [7] has as its system MDA-MB-231 xenotransplants. The data set is described as follows: MDA-MB-231 xenotransplants in nude mice, PJ-34 intra-peritoneal. Format: in vivo, mouse. The following applies: 50 mg/kg PJ-34 i.p. daily for 14 days, started at palpable tumors; individual treated mice (untreated 750 and 850); HCl. The procedure:
In vivo experiments were carried out in nude female mice (nu/nu) injected subcutaneously with MDA-MB-231 cells (FIG. 32). […] About 10^6 cells were injected in 100 μl of MEM (Gibco, Rhenium, Jerusalem Israel) and 100 μl of Matrigel Basement Membrane Matrix (Becton Dickinson, Bedford, Mass., USA; In Israel, Bactolab Diagnostics). Two weeks after injection with MDA-MB-231 cells, palpable (50-80 mm^3) tumors developed in all the female nude mice. One pair of mice remained un-treated. […] Tumors' size was measured every day in all the mice (both treated and untreated). The treated mice were photographed on the first day and on the last day of treatment. Tumor sizes were 750 mm^3 and 850 mm^3 in the untreated mice, versus 130 mm^3 and 150 mm^3 in the treated mice.

In a further data set the test system is brain cortical neurons. The data set is described as follows: Effect on quiescent cells: brain cortical neurons. Particulars: 10 to 30 μM PJ-34, 100 μM Tiq-A, 50 μM Phen. Format: cell-based.
Another data set deals with cardiomyocytes. Briefly: Effect on quiescent cells: cardiomyocytes. Format: cell-based. The following applies: 10 to 30 μM PJ-34, 100 μM Tiq-A, 50 μM Phen.
A further data set deals with PARP-1 (Homo sapiens, UniProt P09874). Particulars: cited from earlier work; for EC50: read-out: EC50 for PARP1 inhibition.
Chain of PARP-1 (P09874 whole entry, species assumed): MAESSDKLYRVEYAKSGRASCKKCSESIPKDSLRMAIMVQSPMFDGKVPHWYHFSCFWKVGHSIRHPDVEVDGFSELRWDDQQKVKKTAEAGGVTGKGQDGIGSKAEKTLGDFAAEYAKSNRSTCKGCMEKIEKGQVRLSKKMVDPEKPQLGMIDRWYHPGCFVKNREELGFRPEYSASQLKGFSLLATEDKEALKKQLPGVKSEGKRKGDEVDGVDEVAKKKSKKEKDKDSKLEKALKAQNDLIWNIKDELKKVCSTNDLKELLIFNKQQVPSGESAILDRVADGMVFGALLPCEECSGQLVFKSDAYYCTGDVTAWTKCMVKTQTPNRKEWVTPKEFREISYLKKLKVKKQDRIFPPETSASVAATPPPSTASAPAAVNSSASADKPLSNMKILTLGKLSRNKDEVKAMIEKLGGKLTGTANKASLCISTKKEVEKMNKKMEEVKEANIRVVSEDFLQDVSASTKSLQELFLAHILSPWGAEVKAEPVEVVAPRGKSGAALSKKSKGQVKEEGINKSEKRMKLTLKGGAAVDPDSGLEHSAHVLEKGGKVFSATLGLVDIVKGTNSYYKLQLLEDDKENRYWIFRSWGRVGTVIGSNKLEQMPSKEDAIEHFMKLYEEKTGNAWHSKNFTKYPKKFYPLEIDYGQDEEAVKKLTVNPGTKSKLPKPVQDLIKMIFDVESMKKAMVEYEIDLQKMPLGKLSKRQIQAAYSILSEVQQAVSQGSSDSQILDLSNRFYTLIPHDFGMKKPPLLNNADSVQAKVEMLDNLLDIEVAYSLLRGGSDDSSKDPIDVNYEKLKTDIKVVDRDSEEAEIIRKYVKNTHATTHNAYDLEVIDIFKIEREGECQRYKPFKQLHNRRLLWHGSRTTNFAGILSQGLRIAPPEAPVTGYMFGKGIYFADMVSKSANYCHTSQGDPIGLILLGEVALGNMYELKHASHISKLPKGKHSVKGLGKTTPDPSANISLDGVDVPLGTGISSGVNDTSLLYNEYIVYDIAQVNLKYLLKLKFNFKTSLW
The test system of data set [8] is MDA-MB-231 breast cancer cells. Briefly: Survival of MDA-MB-231 cells after single application.
Source text: Each value is an average value of three measurements obtained in three different experiments.
The test system of the next data set is MCF-7 brca1+/+ cells. Particulars: 10 μM, 10 consecutive days; cited from earlier work.
Data set [9] relates to HCC1937 (triple negative, BRCA deficient) human breast cancer cells. The data set is described as follows: Combination of MEK and PARP inhibitors on HCC1937 cells. The following applies: 48 hours; PJ-34 5 or 10 μM or Tiq-A 50 μM with 5 μM U0126. Format: cell-based.
Another data set concerns the target T2, HSET (Homo sapiens, UniProt Q9BW19).
T2 sequence (Q9BW19 1-673): T1 sequence (Q9BW19 1-673)
The data set is described as follows: Post translational modification of HSET in MDA-MB-231 cells (pI shift, 2-D gel electrophoresis). It is filed as cell-based. Particulars: ABT888 at 5-20 μM. Here is the method:
Post translational modifications of HSET in MDA-MB-231 breast cancer cells (FIG. 24B-I) were measured by the shifts in its isoelectric point (pI). […] Also, HSET is not modified in normal epithelial cells MCF10A. The vertical lines mark the point of loading of the proteins including HSET in the cell extracts. The arrows mark the shifted pI of HSET. In untreated MDA-MB-231 cells, the largest shift in pI of HSET was to pH 5.6 in the untreated MDA-MB-231 cells.

For the molecule `O=C1CCC(=O)N1c1cc(Cc2n[nH]c(=O)c3ccccc23)ccc1F` [KU0058684], the “inhibition of CAPANI cells” value in data set [1] is reported as “inhibited”.

Consider `C[C@]1(c2nc3c(C(N)=O)cccc3[nH]2)CCCN1` [ABT888, reference compound], for which the “binding of γ-tubulin to kinesin-14/HSET” value in data set [2] is on record as “did not affect the binding”. In addition, in the data set with α-tubulin with γ-tubulin, the “co-immunoprecipitation of α-tubulin with γ-tubulin” value is listed as “not”.

As for `Cc1nc2c(O)cccc2c(=O)[nH]1` [NU1025], the “inhibition of CAPANI cells” value in [1] is given as “not inhibited”.

As for `CN(C)CC(=O)Nc1ccc2[nH]c(=O)c3ccccc3c2c1` [PJ-34, N-(6-oxo-5,6-dihydro-phenanthridin-2-yl)-N,N-dimethylacetamide, HCl], in [3] (48 hours after single application of 10-20 μM PJ-34), the cell death entry is given as “more than 99.5%”. Besides, the MCF-7 cells eradicated entry in data set [3] (48 hours of incubation with 10 μM PJ-34) is recorded as “More than 99%”. Also, in data set [4], the “survival of the other 3 treated mice” value was “more than 4 months”. Also, the “viability, growth or behavior of the mice” value in [5] (3 months after 14-day osmotic pump treatment (Example 6)) is recorded as “did not affect viability, growth or behavior”. Further, the “vitality, growth, development, or any other behavior of treated mice” value in data set [5] (14-day slow release of PJ-34, follow-up periods (Example 11)) is listed as “did not affect the vitality, growth, development, or any other behavior”. Moreover, the “concentration at which PJ-34 acts as centrosomes de-clustering agent” value in data set [6] is “above 20 microM”. In addition, the “cytotoxicity in glioblastoma cancer cells” value (“cytotoxicity” for short) in the data set on U-87 Glioblastoma cells is on record as “cytotoxic in glioblastoma cancer cells at high concentrations”. For the same molecule, the Tumor sizes in [7] is 130 mm^3 and 150 mm^3.

One may read the EC50 as the concentration at which the effect is half-maximal. In the case of `O=c1[nH]c2ccccc2c2ccccc12` [Phen, 6-(5H)-phenanthridinone], the MCF-7 survival entry in [3] is reported as “did not survive”. The “killing of MCF-7 cells” value in data set [3] is given as “efficient in killing MCF-7 cells”. The “impairment of quiescent cells” value in the data set with brain cortical neurons and with cardiomyocytes was “not impaired at all” throughout. Besides, the “binding of γ-tubulin to kinesin-14/HSET” value in [2] is listed as “interfered with the binding”. Also, in the data set on U-87 Glioblastoma cells, the “cytotoxicity” value is “cytotoxic in glioblastoma cancer cells at high concentrations”. Besides, on PARP-1, the EC50 is 120 nM. Besides, in data set [8], the “killing of MDA-MB-231 breast cancer cells” value was “efficient killing”.

What is called Ki is the dissociation constant of the complex between target and ligand, obtained from inhibition or displacement. `CN(C)Cc1ccc(-c2nc3cccc4c3n2CCNC4=O)cc1` [AG14361, reference compound]: on PARP-1 (PARP-1), the Ki is below 5 nM. In addition, the cells eradicated in the data set with MCF-7 brca1+/+ cells is recorded as 50%.

In the case of `O=c1[nH]c2sccc2c2ccccc12` [Tiq-A, 4H-thieno[2,3-c]isoquinolin-5-one], in data set [3], the MCF-7 survival entry is listed as “did not survive” and the “killing of MCF-7 cells” value is “efficient in killing MCF-7 cells”. For the same molecule, the “impairment of quiescent cells” value with brain cortical neurons is “not impaired at all”. Moreover, the “impairment of quiescent cells” value with cardiomyocytes is given as “not impaired at all”. Also, the “effect of combination with MEK inhibitor U0126 versus each inhibitor alone” value in data set [9] is reported as “synergistic effect”. Also, on HSET, the “post translational modification of HSET (pI shift)” value is “prevent the post translational modification”. Moreover, the “binding of γ-tubulin to kinesin-14/HSET” value in data set [2] is listed as “interfered with the binding”. Besides, the “cytotoxicity” value with U-87 Glioblastoma cells is “cytotoxic in glioblastoma cancer cells at high concentrations”. Moreover, the EC50 on PARP-1 is 450 nM. In data set [8], the “killing of MDA-MB-231 breast cancer cells” value is reported as “efficient killing”.
